“And” between values parts separate entries of the source, which are not always exact repeats. Equal values may be shown once. Read-outs that look alike come from different tables or passages of the source.
How the values were obtained:
Pharmacokinetic studies = settings: in vivo
Excerpt: Pharmacokinetic studies on the compounds of the present invention have been carried out in accordance with Endele R and Senn M., Int. J. Mass Spectrom. Ion Phys. 1983 January; 48:81-84. doi:10.1016/0020-7381(83)87033-8.

A375 melanoma cells [1] = experiment: Cell cycle analysis (propidium iodide FACS) A375; assay type: cell-based
Excerpt: (§1) In order to investigate the mode of action (MOA) related to the antitumor activity of the compounds of the present invention (in particular compound 86) in solid tumors and multiple myeloma, two experimental strategies were used to confirm the postulated MOA: 1) monitoring of apoptosis induction and 2) cell cycle analysis upon treatment with compound 86. Three cancer cell lines (LP-1, (multiple myeloma cells, DSMZ ACC 41), A375 (melanoma cells), and HeLa (cervix carcinoma cells)) as well as control cells (HS-5 bone marrow stroma cells, ATCC CRL-11882) were used to obtain mechanistic insight into the antitumor activity of compound 86.
(§2) Measuring of DNA content in cells is a well-established method for monitoring cell proliferation, cell cycle, fragmentation of nuclei (apoptosis) and DNA ploidy. Proliferating cells progress through various phases of the cell cycle (G0, G1, S, G2, and M phase). At different stages of the cell cycle and life cycle, cell nuclei contain different amounts of DNA. The DNA content in cell nuclei was analyzed by propidium iodide (PI) staining and FACS analysis after 12 and 24 h of treatment with 100 nM of compound 86 in accordance with the method of Desai Brijal M. et. al. PLOS Vol. 8; Issue 3; p. 1-11, 2013.

PBMC control cells = experiment: In vitro proliferation screening (Sulforhodamin B) PBMC control cells; assay type: cell-based; settings: 72 h
Experimental: (§3) Six 10-fold dilutions of compound 86 have been prepared in DMSO, from 5×10^−9 M to 5×10^−4. Single data points have been tested for each concentration. The final concentration of DMSO was 0.1%. The duration of the treatment was 72 hours. The growth inhibition was measured by using Sulforhodamin B, a protein-staining assay in accordance with Vichai V et. al. Nat. Protoc. 2006; 1(3):1112-6. Activity of the agents was determined by evaluating the following parameters: IC50, GI50, IC10, GI10, TGI, LC50, IC90 and GI90 (if these values could be calculated).

SKNAS (brain) = experiment: In vitro proliferation screening (Sulforhodamin B) SKNAS; assay type: cell-based; settings: Homo sapiens, SK-N-AS, 72 h, unit M
Excerpt: (§4) In order to evaluate the antitumor activity of the compounds of the present invention, in particular compound 86, in solid tumors, an in vitro proliferation screening in a panel of 10 different human cancer cell lines derived from solid tumors (see Table 5, below) as a model system.
as §3

HCT116 (colon) = experiment: In vitro proliferation screening (Sulforhodamin B) HCT116; assay type: cell-based, human; settings: HCT116, 72 h
Excerpt: as §4, §3

[2] = tested on: HeLa cervix carcinoma cells; experiment: Annexin V/PI staining HeLa; assay type: cell-based; settings: 0.1 μM, 12 h and 24 h
Excerpt: as §1
(§5) Annexin V staining and Poly(ADP-ribose)-Polymerase 1 (PARP) protein cleavage was analyzed to identify a pro-apoptotic effect of compound 86 on tumor cells in accordance with the method of Koopman G, et. al. Blood 1994; 1; 84(5):1415-20. Annexin V allows the identification of cell surface changes that occur early during the apoptotic process by in situ detection, which is ideal for the analysis with adherent cells. Cleavage of PARP-1 by caspases is considered to be a hallmark of apoptosis and was therefore applied to monitor apoptosis induction after 24 h of treatment with 100 nM of compound 86.

A375 melanoma cells [3] = experiment: Annexin V/PI staining A375; assay type: cell-based; settings: A375, 0.1 μM, 12 h and 24 h
Excerpt: as §1, §5

[4] = tested on: HeLa cervix carcinoma cells; experiment: Cell cycle analysis (propidium iodide FACS) HeLa; assay type: cell-based
Excerpt: as §1, §2

[5] = tested on: HS-5 bone marrow stroma cells (control); experiment: Cell cycle analysis (propidium iodide FACS) HS-5; assay type: cell-based; settings: HS-5 control cells, 100 nM, 12 and 24 h
Excerpt: as §1, §2

CDK13 = target: T1, CDK13 (Homo sapiens, UniProt Q14004); experiment: Target selectivity profile (DiscoverX KinomeScan) CDK13; assay type: binding
T1 construct: purchased DiscoverX
Excerpt: 3. Target Selectivity Profile (DiscoverX KinomeScan)
According to an analysis of kinase inhibitory selectivity carried out in accordance with Karaman M W et al., Nat Biotechnol. 2008 January; 26(1):127-32. doi: 10.1038/nbt1358.

[6] = tested on: HT1080 (connective tissue); experiment: In vitro proliferation screening (Sulforhodamin B) HT1080; assay type: cell-based, human; settings: HT1080, 72 h
Excerpt: as §4, §3

MDAMB468 (breast) = experiment: In vitro proliferation screening (Sulforhodamin B) MDAMB468; assay type: cell-based; settings: Homo sapiens, MDA-MB-468; MDAMB468, 72 h; unit M
Excerpt: as §4, §3

RPMI-8226/GN1 = experiment: Multiple myeloma cells in mono- and co-culture with osteoblasts, imaging based detection (RPMI-8226); assay type: cell-based
Experimental: (§6) Compound 86 has been compared with the key compound of WO 2000/21926 A2 (Example 121) in an imaging based detection system.
(§7) Two different multiple myeloma (MM) cell lines (RPMI-8226 (DSMZ, ACC 402), NCI-H929 DSMZ, ACC 163) have been used and were cultured in mono- and co-culture with osteoblasts (OB) (Osteoblasts were obtained by culturing hMSCs with a differentiation inducing medium for two weeks) in accordance with the method of Karadag A. et al. Journal of Bone and Mineral Research Vol. 15, No. 10, 2000 page 1935-43.

A375 melanoma cells [7] = experiment: PARP cleavage Western blot A375; assay type: cell-based; settings: A375, 24 h, 100 nM, FIG. 1B legend 0.08 μM
Excerpt: as §1, §5

NCI-H929/GN2 = experiment: Multiple myeloma cells in mono- and co-culture with osteoblasts, imaging based detection (NCI-H929); assay type: cell-based
Experimental: as §6, §7

T1 sequence (Q14004 whole entry): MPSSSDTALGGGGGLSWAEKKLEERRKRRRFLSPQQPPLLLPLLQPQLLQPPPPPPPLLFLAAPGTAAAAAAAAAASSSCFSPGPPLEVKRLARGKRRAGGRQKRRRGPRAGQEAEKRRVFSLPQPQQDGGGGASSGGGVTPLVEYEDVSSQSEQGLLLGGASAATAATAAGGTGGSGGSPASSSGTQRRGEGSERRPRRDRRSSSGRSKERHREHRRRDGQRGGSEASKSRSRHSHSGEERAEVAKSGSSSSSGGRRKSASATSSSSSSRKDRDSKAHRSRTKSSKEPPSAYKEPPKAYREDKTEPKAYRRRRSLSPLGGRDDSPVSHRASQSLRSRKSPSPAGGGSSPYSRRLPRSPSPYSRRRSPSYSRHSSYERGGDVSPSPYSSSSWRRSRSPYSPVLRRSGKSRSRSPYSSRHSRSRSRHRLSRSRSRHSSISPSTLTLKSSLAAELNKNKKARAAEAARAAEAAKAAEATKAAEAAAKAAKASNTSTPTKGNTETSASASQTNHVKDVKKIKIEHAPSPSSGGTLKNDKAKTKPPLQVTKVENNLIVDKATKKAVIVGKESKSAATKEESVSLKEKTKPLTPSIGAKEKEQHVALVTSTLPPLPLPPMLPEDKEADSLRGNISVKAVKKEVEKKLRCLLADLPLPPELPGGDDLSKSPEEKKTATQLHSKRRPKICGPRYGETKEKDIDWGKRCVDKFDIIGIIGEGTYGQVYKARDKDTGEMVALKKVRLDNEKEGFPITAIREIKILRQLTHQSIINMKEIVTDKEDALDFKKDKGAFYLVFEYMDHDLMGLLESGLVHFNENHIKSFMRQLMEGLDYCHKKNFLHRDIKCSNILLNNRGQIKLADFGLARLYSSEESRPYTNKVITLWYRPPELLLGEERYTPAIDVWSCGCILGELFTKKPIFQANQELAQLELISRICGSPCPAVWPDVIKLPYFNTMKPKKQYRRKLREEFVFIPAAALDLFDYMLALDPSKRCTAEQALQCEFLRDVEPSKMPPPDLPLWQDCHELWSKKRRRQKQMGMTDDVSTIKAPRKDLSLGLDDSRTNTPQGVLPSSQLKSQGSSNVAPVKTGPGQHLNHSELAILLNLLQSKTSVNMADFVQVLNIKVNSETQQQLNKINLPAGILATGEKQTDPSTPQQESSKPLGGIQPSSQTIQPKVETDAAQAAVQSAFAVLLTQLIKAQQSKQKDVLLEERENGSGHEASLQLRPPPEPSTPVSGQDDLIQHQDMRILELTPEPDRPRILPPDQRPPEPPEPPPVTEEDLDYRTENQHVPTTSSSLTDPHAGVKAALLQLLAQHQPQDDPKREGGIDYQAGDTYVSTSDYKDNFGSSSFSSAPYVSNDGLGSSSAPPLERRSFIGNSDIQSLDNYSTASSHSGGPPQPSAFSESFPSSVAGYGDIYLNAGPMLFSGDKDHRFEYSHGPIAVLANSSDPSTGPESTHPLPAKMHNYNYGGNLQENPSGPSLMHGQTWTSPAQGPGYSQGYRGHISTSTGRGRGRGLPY

oral bioavailability (Pharmacokinetic studies): display oral bioavailability
GI50 (SKNAS (brain)): 41.2 nM
IC50 (SKNAS (brain)): 74.3 nM
GI50 (HCT116 (colon); unit M): 5.82 nM
GI50 (HCT116 (colon); Homo sapiens, HCT-116, 72 h, rounded value of the conclusions): 5.8 nM
GI50 (HCT116 (colon); Homo sapiens, HCT-116, 72 h, unit M): 5.82 nM
IC50 (HCT116 (colon); Homo sapiens, HCT-116, unit M): 6.05 nM
kinase inhibitory selectivity: CDK13 (CDK13): active as inhibitors
GI50 ([6]; Homo sapiens, HT-1080, unit M): 36.4 nM
IC50 ([6]; Homo sapiens, HT-1080, unit M): 38 nM
GI50 (MDAMB468 (breast)): 38.9 nM
IC50 (MDAMB468 (breast)): 43 nM
EC50 (RPMI-8226/GN1; Homo sapiens, RPMI-8226, RPMI-8226/GN1, co-culture with osteoblasts, read-out: co-culture (+ OB) EC50): 140 nM
EC50 (RPMI-8226/GN1; Homo sapiens, RPMI-8226, RPMI-8226/GN1, mono-culture, read-out: mono-culture EC50): 140 nM
EC50 (RPMI-8226/GN1; RPMI-8226/GN1, co-culture with osteoblasts, read-out: co-culture (+ OB) EC50): 220 nM and 180 nM
EC50 (RPMI-8226/GN1; RPMI-8226/GN1, mono-culture, read-out: mono-culture EC50): 190 nM and 120 nM
EC50 (NCI-H929/GN2; Homo sapiens, NCI-H929, NCI-H929/GN2, co-culture with osteoblasts, read-out: co-culture (+ OB) EC50): 72 nM
EC50 (NCI-H929/GN2; Homo sapiens, NCI-H929, NCI-H929/GN2, mono-culture, read-out: mono-culture EC50): 62 nM
EC50 (NCI-H929/GN2; NCI-H929/GN2, co-culture with osteoblasts, read-out: co-culture (+ OB) EC50): 68 nM
EC50 (NCI-H929/GN2; NCI-H929/GN2, mono-culture, read-out: mono-culture EC50): 55 nM
Compound: CCN(CC)CC(=O)Nc1ccc(Cc2nc3c(c(N(C)C)nn3-c3c(Cl)cc(S(N)(=O)=O)cc3Cl)c(=O)[nH]2)cc1 [Compound 86, N-{4-[1-(2,6-Dichloro-4-sulfamoyl-phenyl)-3-dimethylamino-4-oxo-4,5-dihydro-1H-pyrazolo[3,4-d]pyrimidin-6-ylmethyl]-phenyl}-2-diethylamino-acetamide]
cell cycle profile (DNA content) (A375 melanoma cells [1]; A375, 0.1 μM, 12 and 24 h (FIG. 1A)): cell cycle defects and a progressive enrichment of the sub G1 group
cell cycle profile (DNA content) (A375 melanoma cells [1]; A375, 100 nM, 12 h): G2/M arrest
cell cycle profile (DNA content) (A375 melanoma cells [1]; A375, 100 nM, 24 h): started to enrich in the sub_G1 fraction
response to treatment (growth inhibition) (PBMC control cells): resistant
induction of apoptosis (Annexin V/PI staining) [2]: specific induction of apoptosis
induction of apoptosis (Annexin V/PI staining) ([2]; listed as Otviciclib): reproducible induction of apoptosis
induction of apoptosis (Annexin V/PI staining) (A375 melanoma cells [3]): specific induction of apoptosis
induction of apoptosis (Annexin V/PI staining) (A375 melanoma cells [3]; listed as Otviciclib): reproducible induction of apoptosis
cell cycle profile (DNA content) ([4]; 0.1 μM, 12 and 24 h (FIG. 1A)): cell cycle defects and a progressive enrichment of the sub G1 group
cell cycle profile (DNA content) ([4]; 100 nM, 12 h): unaffected
cell cycle profile (DNA content) ([4]; 100 nM, 24 h): clear response
cell cycle profile (DNA content) [5]: remained unchanged
growth inhibitory response in words [6]: growth inhibition in the middle nanomolar range
PARP cleavage (A375 melanoma cells [7]): specific induction of PARP cleavage
PARP cleavage (A375 melanoma cells [7]; listed as Otviciclib): induction of PARP cleavage
